The text below walks through data of patent US5661175A, “Hemiasterlin and geodiamolide TA” (priority 1995, dated 1997).

≈ marks a conversion by molar mass, not a printed value.

One assay relates to P-388. The assay is described as follows: Antitumor cell screening, P-388 growth inhibition. The assay is classed as cell-based, DBA/2 mouse. The note with it: Mus musculus, 72 h; P388; three days incubation at 37° C.; approximate IC50. As to the method:
(§1) Cells were maintained in logarithmic phase of growth in Eagle's Minimum Essential Medium, with Earle's Balanced Salts, with 2.0 mM L-Glutamine, with non-essential Amino Acids, without Sodium Bicarbonate (EMEM/NEAA); supplemented with 10% Fetal Calf Serum (FCS), 10^-2M Sodium Bicarbonate and 0.1 g/l Penicillin-G+Streptomycin Sulfate.
(§2) A simple screening procedure has been carried out to determine and compare the antitumor activity of these compounds, using an adapted form of the method described by Bergeron et al. (1984). The antitumor cell employed have been P-388 (suspension culture of a lymphoid neoplasm from DBA/2 mouse), A-549 (monolayer culture of a human lung carcinoma), HT-29 (monolayer culture of a human colon carcinoma) and MEL-28 (monolayer culture of a human melanoma).
P-388 cells were seeded into 16 mm wells at 1×10^4 cells per well in 1 ml aliquots of MEM 5FCS containing the indicated concentration of drug. A separate set of cultures without drug was seeded as control growth to ensure that cells remained in exponential phase of growth. All determinations were carried out in duplicate. After three days of incubation at 37° C., 10% CO2 in a 98% humid atmosphere, an approximately IC50 was determined by comparing the growth in wells with drug to the growth in wells control.

In the next assay the test system is A-549. Nature of the assay: Antitumor cell screening, A-549 growth inhibition (Crystal Violet). As to conditions: Homo sapiens, 72 h; A549; three days incubation at 37° C.; approximate IC50. It counts as cell-based. How it is done:
as §1, §2
(§3) A-549, HT-29 and MEL-28 were seeded into 16 mm wells at 2×10^4 cells per well in 1 ml aliquots of MEM 10FCS containing the indicated concentration of drug. A separate set of cultures without drug was seeded as control growth to ensure that cells remained in exponential phase of growth. All determinations were carried out in duplicate. After three days of incubation at 37° C., 10% CO2 in a 98% humid atmosphere, the wells were stained with 0.1% Crystal Violet. An approximately IC50 was determined by comparing the growth in wells with drug to the growth in wells control.

Another assay has as its system HT-29. The assay is described as follows: Antitumor cell screening, HT-29 growth inhibition (Crystal Violet). As to conditions: Homo sapiens, HT-29, 72 h; HT29; three days incubation at 37° C.; approximate IC50. The assay is classed as cell-based. How it is done:
as §1, §2, §3

Another assay has as its system MEL-28. Nature of the assay: Antitumor cell screening, MEL-28 growth inhibition (Crystal Violet). The assay is classed as cell-based. As to conditions: Homo sapiens, SK-MEL-28, 72 h; MEL28; three days incubation at 37° C.; approximate IC50. How it is done: as §1, §2, §3

The term IC50 denotes the concentration that gives 50% inhibition. Higher therefore signals a need for much substance. On to `C/C1=C\C(C)CC(C)OC(=O)C(C(C)C)NC(=O)C(Cc2ccc(O)c(I)c2)N(C)C(=O)C(C)NC(=O)C(C)C1` (stereo not shown) [Compound 3, geodiamolide TA], for which the IC50 is 0.01 µg/mL (≈ 0.0149 µM) in the assay on P-388, 0.01 µg/mL (≈ 0.0149 µM) in the assay with A-549, 5 ng/mL (≈ 0.00747 µM) with HT-29 and 0.01 µg/mL (≈ 0.0149 µM) with MEL-28.
